Tested on: 636577-100-R-J1-PDC complex spheroid viability
Assay: Anticancer human tumor 636577-100-R-J1-PDC patient-derived endometrial adenocarcinoma cell line growth inhibition [GQUAD]
Details: for IC50: curve of first compound; for viability, T/C: stronger effect = lower value
Method in brief: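 Tumor cells were grown as complex spheroids with HUVEC endothelial cells and mesenchymal stem cells as stroma. G-quadruplex stabilizers were combined with targeted agents over half-log dilutions from near the clinical Cmax, or from 10 microM.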

[1] = second compound 0.0316 µM, first compound 0.0316 µM
[2] = second compound 0.0316 µM, first compound 0.1 µM
[3] = second compound 0.0316 µM, first compound 0.316 µM
[4] = second compound 0.0316 µM, first compound 1 µM
[5] = second compound 0.0316 µM, first compound 3.16 µM
[6] = second compound 0.0316 µM, first compound 10 µM
[7] = second compound 0.1 µM, first compound 0.0316 µM
[8] = second compound 0.1 µM, first compound 0.1 µM
[9] = second compound 0.1 µM, first compound 0.316 µM
[10] = second compound 0.1 µM, first compound 1 µM
[11] = second compound 0.1 µM, first compound 3.16 µM
[12] = second compound 0.1 µM, first compound 10 µM
[13] = second compound 0.316 µM, first compound 0.0316 µM
[14] = second compound 0.316 µM, first compound 0.1 µM
[15] = second compound 0.316 µM, first compound 0.316 µM
[16] = second compound 0.316 µM, first compound 1 µM
[17] = second compound 0.316 µM, first compound 3.16 µM
[18] = second compound 0.316 µM, first compound 10 µM
[19] = second compound 1 µM, first compound 0.0316 µM
[20] = second compound 1 µM, first compound 0.1 µM
[21] = second compound 1 µM, first compound 0.316 µM
[22] = second compound 1 µM, first compound 1 µM
[23] = second compound 1 µM, first compound 3.16 µM
[24] = second compound 1 µM, first compound 10 µM
[25] = second compound 3.16 µM, first compound 0.0316 µM
[26] = second compound 3.16 µM, first compound 0.1 µM
[27] = second compound 3.16 µM, first compound 0.316 µM
[28] = second compound 3.16 µM, first compound 1 µM
[29] = second compound 3.16 µM, first compound 3.16 µM
[30] = second compound 3.16 µM, first compound 10 µM
[31] = second compound 10 µM, first compound 0.0316 µM
[32] = second compound 10 µM, first compound 0.1 µM
[33] = second compound 10 µM, first compound 0.316 µM
[34] = second compound 10 µM, first compound 1 µM
[35] = second compound 10 µM, first compound 3.16 µM
[36] = second compound 10 µM, first compound 10 µM
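Also: viability read after seven days of drug exposure.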
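For viability, T/C in this document: luminescence signal used as a proxy for viable cells; 100% = DMSO vehicle control wells.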

COc1ncnc(C2CC2)c1-c1ncc2cnn(Cc3ccc(-c4nc(C(F)(F)F)cn4C(C)C)cc3)c2n1 + CN(C)c1ccc(Nc2c3ccc(NC(=O)CCN4CCCC4)cc3nc3cc(NC(=O)CCN4CCCC4)ccc23)cc1
IC50 (second compound 0.0316 µM): > 10000 nM | IC50 (second compound 0.1 µM): > 10000 nM | IC50 (second compound 0.316 µM): > 10000 nM | IC50 (second compound 1 µM): 91.6 nM | IC50 (second compound 3.16 µM): < 31.6 nM | IC50 (second compound 10 µM): < 31.6 nM | viability, T/C [1]: 79.6% | viability, T/C [2]: 62.9% | viability, T/C [3]: 69.6% | viability, T/C [4]: 64% | viability, T/C [5]: 56.9% | viability, T/C [6]: 57.4% | viability, T/C [7]: 69.4% | viability, T/C [8]: 47.5% | viability, T/C [9]: 66% | viability, T/C [10]: 39.1% | viability, T/C [11]: 63% | viability, T/C [12]: 68.8% | viability, T/C [13]: 71.5% | viability, T/C [14]: 61.9% | viability, T/C [15]: 58.1% | viability, T/C [16]: 54.4% | viability, T/C [17]: 64.2% | viability, T/C [18]: 48.9% | viability, T/C [19]: 57.2% | viability, T/C [20]: 52.5% | viability, T/C [21]: 49.2% | viability, T/C [22]: 25.7% | viability, T/C [23]: 54.3% | viability, T/C [24]: 48.9% | viability, T/C [25]: 32.4% | viability, T/C [26]: 31.1% | viability, T/C [27]: 36.2% | viability, T/C [28]: 30.8% | viability, T/C [29]: 26% | viability, T/C [30]: 17.8% | viability, T/C [31]: 4.33% | viability, T/C [32]: 4.66% | viability, T/C [33]: 3.91% | viability, T/C [34]: 3.97% | viability, T/C [35]: 2.12% | viability, T/C [36]: 0.46%

CCCS(=O)(=O)Nc1ccc(F)c(C(=O)c2c[nH]c3ncc(-c4ccc(Cl)cc4)cc23)c1F + CN(C)c1ccc(Nc2c3ccc(NC(=O)CCN4CCCC4)cc3nc3cc(NC(=O)CCN4CCCC4)ccc23)cc1
IC50 (second compound 0.0316 µM): 6700 nM | IC50 (second compound 0.1 µM): 6470 nM | IC50 (second compound 0.316 µM): 6630 nM | IC50 (second compound 1 µM): 6620 nM | IC50 (second compound 3.16 µM): < 31.6 nM | IC50 (second compound 10 µM): < 31.6 nM | viability, T/C [1]: 101% | viability, T/C [2]: 98.1% | viability, T/C [3]: 118% | viability, T/C [4]: 59.4% | viability, T/C [5]: 87.2% | viability, T/C [6]: 35.4% | viability, T/C [7]: 96.4% | viability, T/C [8]: 79.3% | viability, T/C [9]: 89.1% | viability, T/C [10]: 73.1% | viability, T/C [11]: 80.4% | viability, T/C [12]: 32.8% | viability, T/C [13]: 82.4% | viability, T/C [14]: 83% | viability, T/C [15]: 80.2% | viability, T/C [16]: 69.2% | viability, T/C [17]: 74.9% | viability, T/C [18]: 37.6% | viability, T/C [19]: 79.3% | viability, T/C [20]: 69.8% | viability, T/C [21]: 78.9% | viability, T/C [22]: 89.8% | viability, T/C [23]: 77.7% | viability, T/C [24]: 34.5% | viability, T/C [25]: 35.7% | viability, T/C [26]: 47.9% | viability, T/C [27]: 47.1% | viability, T/C [28]: 43% | viability, T/C [29]: 40.6% | viability, T/C [30]: 18.5% | viability, T/C [31]: 5.58% | viability, T/C [32]: 6.42% | viability, T/C [33]: 6.13% | viability, T/C [34]: 6.09% | viability, T/C [35]: 4.83% | viability, T/C [36]: 1.82%

CC1COCCN1c1cc(C2(O)CC3CCC(C2)O3)c2cnn(-c3ccn[nH]3)c2n1 (stereo not given) + Cc1[nH]c2ccc(F)cc2c1-c1nc2c3cccnc3c3ncccc3c2[nH]1
IC50 (second compound 0.0316 µM): 70.6 nM | IC50 (second compound 0.1 µM): 63.3 nM | IC50 (second compound 0.316 µM): 59.2 nM | IC50 (second compound 1 µM): < 31.6 nM | IC50 (second compound 3.16 µM): < 31.6 nM | IC50 (second compound 10 µM): < 31.6 nM | viability, T/C [1]: 82.9% | viability, T/C [2]: 33.8% | viability, T/C [3]: 18.5% | viability, T/C [4]: 7.11% | viability, T/C [5]: 3.67% | viability, T/C [6]: 1.06% | viability, T/C [7]: 71.2% | viability, T/C [8]: 35.3% | viability, T/C [9]: 18.7% | viability, T/C [10]: 8.6% | viability, T/C [11]: 3.75% | viability, T/C [12]: 1.19% | viability, T/C [13]: 67.1% | viability, T/C [14]: 36.1% | viability, T/C [15]: 15.7% | viability, T/C [16]: 8.55% | viability, T/C [17]: 4.01% | viability, T/C [18]: 1.3% | viability, T/C [19]: 32% | viability, T/C [20]: 26% | viability, T/C [21]: 14.9% | viability, T/C [22]: 8.44% | viability, T/C [23]: 3.77% | viability, T/C [24]: 1.61% | viability, T/C [25]: 17.9% | viability, T/C [26]: 14.8% | viability, T/C [27]: 10.7% | viability, T/C [28]: 7.29% | viability, T/C [29]: 3.77% | viability, T/C [30]: 1.49% | viability, T/C [31]: 24.6% | viability, T/C [32]: 21.4% | viability, T/C [33]: 15.2% | viability, T/C [34]: 8.61% | viability, T/C [35]: 4.18% | viability, T/C [36]: 1.5%

C#Cc1c(F)ccc2cc(O)cc(-c3ncc4c(N5CC6CCC(C5)N6)nc(OCC56CCCN5CC(F)C6)nc4c3F)c12 (stereo not given) + CN(C)c1ccc(Nc2c3ccc(NC(=O)CCN4CCCC4)cc3nc3cc(NC(=O)CCN4CCCC4)ccc23)cc1
IC50 (second compound 0.0316 µM): 6070 nM | IC50 (second compound 0.1 µM): 3230 nM | IC50 (second compound 0.316 µM): 3860 nM | IC50 (second compound 1 µM): 2430 nM | IC50 (second compound 3.16 µM): < 31.6 nM | IC50 (second compound 10 µM): < 31.6 nM | viability, T/C [1]: 109% | viability, T/C [2]: 84.1% | viability, T/C [3]: 95.4% | viability, T/C [4]: 69.9% | viability, T/C [5]: 72.2% | viability, T/C [6]: 37.2% | viability, T/C [7]: 98.6% | viability, T/C [8]: 94.3% | viability, T/C [9]: 85.6% | viability, T/C [10]: 68% | viability, T/C [11]: 49.4% | viability, T/C [12]: 42.5% | viability, T/C [13]: 93% | viability, T/C [14]: 99.3% | viability, T/C [15]: 85.7% | viability, T/C [16]: 62.1% | viability, T/C [17]: 59.1% | viability, T/C [18]: 34.9% | viability, T/C [19]: 61% | viability, T/C [20]: 75.2% | viability, T/C [21]: 70.5% | viability, T/C [22]: 61.8% | viability, T/C [23]: 46.5% | viability, T/C [24]: 29.8% | viability, T/C [25]: 41.7% | viability, T/C [26]: 37.2% | viability, T/C [27]: 38% | viability, T/C [28]: 36.4% | viability, T/C [29]: 22.7% | viability, T/C [30]: 15.7% | viability, T/C [31]: 5.81% | viability, T/C [32]: 4.81% | viability, T/C [33]: 4.89% | viability, T/C [34]: 3.78% | viability, T/C [35]: 3.21% | viability, T/C [36]: 0.66%

COc1ccc([C@@H](O)c2cc(-c3ncnc4cc(N5CCOCC5)ccc34)c(F)cc2Cl)nn1 + CN(C)c1ccc(Nc2c3ccc(NC(=O)CCN4CCCC4)cc3nc3cc(NC(=O)CCN4CCCC4)ccc23)cc1
IC50 (second compound 0.0316 µM): 1560 nM | IC50 (second compound 0.1 µM): 486 nM | IC50 (second compound 0.316 µM): 466 nM | IC50 (second compound 1 µM): 153 nM | IC50 (second compound 3.16 µM): < 31.6 nM | IC50 (second compound 10 µM): < 31.6 nM | viability, T/C [1]: 93.7% | viability, T/C [2]: 98% | viability, T/C [3]: 88.5% | viability, T/C [4]: 55.3% | viability, T/C [5]: 39.1% | viability, T/C [6]: 20.1% | viability, T/C [7]: 102% | viability, T/C [8]: 63.5% | viability, T/C [9]: 58.3% | viability, T/C [10]: 44% | viability, T/C [11]: 37% | viability, T/C [12]: 19.8% | viability, T/C [13]: 77.5% | viability, T/C [14]: 77.2% | viability, T/C [15]: 61% | viability, T/C [16]: 27.6% | viability, T/C [17]: 24% | viability, T/C [18]: 12.1% | viability, T/C [19]: 73.2% | viability, T/C [20]: 47.4% | viability, T/C [21]: 50.6% | viability, T/C [22]: 25.5% | viability, T/C [23]: 17.4% | viability, T/C [24]: 11.7% | viability, T/C [25]: 35.3% | viability, T/C [26]: 40.5% | viability, T/C [27]: 24% | viability, T/C [28]: 14.5% | viability, T/C [29]: 9.36% | viability, T/C [30]: 7.69% | viability, T/C [31]: 5.37% | viability, T/C [32]: 4.81% | viability, T/C [33]: 3.18% | viability, T/C [34]: 2.32% | viability, T/C [35]: 1.95% | viability, T/C [36]: 0.58%
